Measured values reported in patent US7879846B2, “Serine hydrolase inhibitors” (Kyorin Pharmaceutical Co.., Ltd., priority 2006, dated 2011).
pIC50: −log10 of the molar value. Where “and” joins values, the source holds several entries; their conditions need not be identical. Equal values may be shown once. Where a name gives a salt, the structure may show the parent alone.

Legend:
[1] = molecular target: T1, Human sputum neutrophil elastase (Homo sapiens, UniProt P08246); experiment: Inhibitor IC50 against human neutrophil elastase (fluorogenic MeOSuc-AAPV-AMC substrate); type: biochemical; conditions: 20 min preincubation, read-out: HNE IC50
T1 construct: purchased Elastin Products Co; host or cells: human sputum (natural source)
T1 sequence (P08246 30-247 limits assumed): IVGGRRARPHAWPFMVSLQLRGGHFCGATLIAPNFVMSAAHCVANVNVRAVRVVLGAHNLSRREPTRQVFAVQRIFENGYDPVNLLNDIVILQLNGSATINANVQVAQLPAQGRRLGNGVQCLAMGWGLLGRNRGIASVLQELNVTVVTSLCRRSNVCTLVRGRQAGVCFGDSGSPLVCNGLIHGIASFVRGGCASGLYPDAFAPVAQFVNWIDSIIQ
Summary of the method: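 Enzyme from human sputum in 200 mM Tris pH 7.4 with 1 mg/ml BSA; MeOSuc-AAPV-AMC at 1×10^−4 M final. Reaction ran 20 min at room temperature, then quenched with 3% (v/v) acetic acid. IC50 from Hill fit of fluorescence versus inhibitor concentration.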

[2] = test system: HNE-induced hemorrhage in the lung; experiment: Neutrophil elastase-induced lung hemorrhagic assay; type: in vivo; conditions: Mus musculus, iv, 10 mg/kg intravenously to male balb/c mice 10 min before intratracheal HNE, hemoglobin in BALF 3 h after HNE, vs vehicle-treated controls, read-out: % Inhibition in Murine Lung Hemorrhage Model @ 10 mg/kg
Source text: Neutrophil Elastase-Induced Lung Hemorrhagic Assay
This in vivo assay is based on estimating the amount of hemorrhage in the lung following intratracheal administration of human neutrophil elastase (HNE). Hemorrhage is quantified by measuring the concentration of hemoglobin in the bronchoalveolar lavage fluid (BALF).
DMSO or saline served as vehicle controls. Mice were anesthetized with halothane and the trachea exposed by a small incision in the neck. Ten minutes after compound administration, mice received 7.5 units/animal of HNE (Elastin Products Co.) dissolved in […] saline. Three hours after HNE instillation, the animals were euthanized with an overdose of urethane. […] Triton X-100 was added to the collected BALF at a final concentration of 0.2% (v/v) to ensure cell disruption.

[3] = test system: LPS-induced increase of lung permeability (Evan's blue dye leakage); experiment: Acute lung injury model (lung permeability assay); type: in vivo; conditions: male Wistar rats, intratracheal LPS, intravenous infusion 10 mg/kg/hr over 6 hours, Evan's blue dye content of lung
Description: Acute Lung Injury Model (Lung Permeability Assay)
Adult male Wistar rats (200-250 g) were anesthetized with an intraperitoneal of pentobarbital (30 mg/kg). Under the anesthesia, lipopolysaccharide (LPS) ([…]) or physiological saline (100 μL/animal) was intratracheally injected. Increase of lung permeability after LPS instillation was measured by Evan's blue dye (EBD) leakage from blood. EBD (40 mg/5 mL/kg) was administered via tail vein 5 hours after the LPS challenge. At 6 hours, animals were exsanguinated by cardiac puncture under deep anesthesia and the pulmonary vessels were perfused with 20 mL saline to ensure the removal of EBD from the vascular spaces. Lungs were removed and EBD was extracted in 6 mL formamide at 65° C. overnight. EBD content was determined by measuring absorbance at 620 nm using a spectrophotometer. The test compound was dissolved in saline with a small amount of 1 N HCl and continuously infused intravenously at a rate of 10 mg/kg/hr over 6 hours starting just after LPS challenge.

| Structure (SMILES) | melting point | pIC50 [1] | inhibition in vivo at 10 mg/kg [2] | % Inhibition in the ALI model [3] |
| --- | --- | --- | --- | --- |
| CCc1cc(OC)cc2nc(-c3cccnc3N3CC[C@H](N(C)C)C3)oc(=O)c12 (as salt: methanesulfonate) (hydrate or solvate) [Compound 132, 2-[2-((S)-3-Dimethylamino-pyrrolidin-1-yl)-pyridin-3-yl]-5-ethyl-7-methoxy-4H-benz[d][1,3]oxazin-4-one] | 43 to 49 °C |  |  |  |
| CCc1cc(OC)cc2nc(-c3cccnc3N3CC[C@H](N(C)C)C3)oc(=O)c12 (as salt: salt) (hydrate or solvate) [Compound 132, 2-[2-((S)-3-Dimethylamino-pyrrolidin-1-yl)-pyridin-3-yl]-5-ethyl-7-methoxy-4H-benz[d][1,3]oxazin-4-one] | 150 to 159 °C |  |  |  |
| Cc1cccc2nc(-c3ccccn3)oc(=O)c12 [Compound 4] |  | < 6.82 | > 30% |  |
| Cc1cccnc1-c1nc2cccc(Cl)c2c(=O)o1 [Compound 18] |  | 7.22 to 7.80 | < 10% |  |
| Cc1cccc2nc(-c3cccnc3Oc3ccc(Cl)cc3)oc(=O)c12 [Compound 21] |  | 7.22 to 7.80 | < 10% |  |
| O=c1oc(-c2cccnc2Oc2ccc(F)cc2)nc2cccc(Cl)c12 [Compound 26] |  | 6.82 to 7.21 | 11 to 30% |  |
| Cc1cccc2nc(-c3cccnc3Oc3ccc(F)cc3)oc(=O)c12 [Compound 36] |  | 7.22 to 7.80 | > 30% |  |
| O=c1oc(-c2cccnc2Oc2ccccc2)nc2cccc(C(F)(F)F)c12 [Compound 39] |  | > 7.82 | > 30% |  |
| COCCN1CCN(c2ncccc2-c2nc3cccc(C)c3c(=O)o2)CC1 [Compound 44] |  | 7.22 to 7.80 | 11 to 30% |  |
| Cc1cccc2nc(-c3cccnc3N3CCC(N(C)C)C3)oc(=O)c12 (stereo not shown) [Compound 46, 2-[2-(3-Dimethylamino-pyrrolidin-1-yl)-pyridin-3-yl]-5-methyl-4H-benz[d][1,3]oxazin-4-one] |  | 6.82 to 7.21 | > 30% |  |
| Cc1cccc2nc(-c3cccnc3N3CCCC(N(C)C)C3)oc(=O)c12 (stereo not shown) [Compound 49] |  | 6.82 to 7.21 | < 10% |  |
| Cc1cccc2nc(-c3cccnc3N3CCN(C)C(C)C3)oc(=O)c12 (stereo not shown) [Compound 50] |  | < 6.82 | 11 to 30% |  |
| COCCOCCOCCOCCOc1ncccc1-c1nc2cccc(C)c2c(=O)o1 [Compound 52, 2-[2-(2-{2-[2-(2-Methoxy-ethoxy)-ethoxy]-ethoxy}-ethoxy)-pyridin-3-yl]-5-methyl-4H-benz[d][1,3]oxazin-4-one] |  | 7.22 to 7.80 | 11 to 30% |  |
| Cc1cccc2nc(-c3cccnc3N(C)C3CCN(C)C3)oc(=O)c12 (stereo not shown) [Compound 53] |  | 6.82 to 7.21 | 11 to 30% |  |
| Cc1cccc2nc(-c3cccnc3N3CCN(CC4CC4)CC3)oc(=O)c12 [Compound 54] |  | < 6.82 | > 30% |  |
| CCc1cc(OC)cc2nc(-c3cccnc3N3CCN(CCOC)CC3)oc(=O)c12 [Compound 134] |  |  |  | B (B=11-30) |

More lines, main results first:

| melting point | pIC50 [1] | Structure (SMILES) | inhibition in vivo at 10 mg/kg [2] | % Inhibition in the ALI model [3] |
| --- | --- | --- | --- | --- |
| 148 to 155 °C and 144 to 145 °C |  | CCc1cc(OC)cc2nc(-c3cccnc3N3CC[C@H](N(C)C)C3)oc(=O)c12 (as salt: tartrate) (hydrate or solvate) [Compound 132, 2-[2-((S)-3-Dimethylamino-pyrrolidin-1-yl)-pyridin-3-yl]-5-ethyl-7-methoxy-4H-benz[d][1,3]oxazin-4-one] |  |  |
| 117 to 119 °C |  | CCc1cc(OC)cc2nc(-c3cccnc3N3CC[C@H](N(C)C)C3)oc(=O)c12 (as salt: trifluoroacetate) [Compound 132, 2-[2-((S)-3-Dimethylamino-pyrrolidin-1-yl)-pyridin-3-yl]-5-ethyl-7-methoxy-4H-benz[d][1,3]oxazin-4-one] |  |  |
|  | > 7.82 | CCc1cc(OC)cc2nc(-c3cccnc3N3CC[C@H](N(C)C)C3)oc(=O)c12 [Compound 132, 2-[2-((S)-3-Dimethylamino-pyrrolidin-1-yl)-pyridin-3-yl]-5-ethyl-7-methoxy-4H-benz[d][1,3]oxazin-4-one] |  | C (C>30) |
|  | > 7.82 | CCc1cc(OC)cc2nc(-c3cccnc3N3CC[C@H](N(CCO)CCO)C3)oc(=O)c12 [Compound 263] |  |  |
|  | > 7.82 | CCc1cc(OC)cc2nc(-c3cccnc3N3CC[C@H](N4CCS(=O)(=O)CC4)C3)oc(=O)c12 [Compound 264] |  |  |
|  | > 7.82 | CCc1cc(OC)cc2nc(-c3cccnc3N3CC[C@@H](N(C)CCOC)C3)oc(=O)c12 [Compound 265] |  |  |
|  | > 7.82 | CCc1cc(OC)cc2nc(-c3cccnc3N3CC[C@@H](N4CCNC(=O)C4)C3)oc(=O)c12 [Compound 266] |  |  |
|  | > 7.82 | CCc1cc(OC)cc2nc(-c3cccnc3N3CC[C@@H](N4CCOCC4)C3)oc(=O)c12 [Compound 267] |  |  |
|  | > 7.82 | CCc1cc(OC)cc2nc(-c3cccnc3N3CC[C@@H](N(CCO)CCO)C3)oc(=O)c12 [Compound 268] |  |  |
|  | > 7.82 | CCc1cc(OC)cc2nc(-c3cccnc3N3CC[C@@H](N4CCS(=O)(=O)CC4)C3)oc(=O)c12 [Compound 269] |  |  |
|  | > 7.82 | CCc1cc(OC)cc2nc(-c3cccnc3N3CC[C@@H](N(C)CCO)C3)oc(=O)c12 [Compound 270] |  |  |
|  | > 7.82 | CCc1cc(OC)cc2nc(-c3cccnc3N3CCC[C@H]3CN3CCCC3)oc(=O)c12 [Compound 271] |  |  |
|  | > 7.82 | CCc1cc(OC)cc2nc(-c3cccnc3N3CCC(CN4CCCC4)CC3)oc(=O)c12 [Compound 272] |  |  |
|  | 7.22 to 7.80 | CCc1cc(OC)cc2nc(-c3cccnc3N3CCC(C)(C(=O)N4CCN(C)CC4)CC3)oc(=O)c12 [Compound 273] |  |  |
|  | > 7.82 | CCc1cc(OC)cc2nc(-c3cccnc3N3CCC(C)(C(=O)NCCN(CC)CC)CC3)oc(=O)c12 [Compound 274] |  |  |
|  | > 7.82 | CCc1cc(OC)cc2nc(-c3cccnc3N3CCC(c4c[nH]cn4)CC3)oc(=O)c12 [Compound 275] |  |  |
